PubChem BioAssay (NCI)
Where “and” joins values, the source holds several entries; their conditions need not be identical. Equal entries are not always repeated.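 All cell lines were grown in 96-well plates and treated with compound for 48 hours. GI50 = concentration required for 50% inhibition of growth. TGI: total growth inhibition.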

Assays:
Assay in all cases: NCI anticancer screen, dose series, 48 h
NCI-H226 lung = system: NCI-H226 lung
COLO 205 colon = system: COLO 205 colon
SN12C renal = system: SN12C renal
HOP-62 NSCLC = system: HOP-62 NSCLC
SW-620 colon = system: SW-620 colon
M14 melanoma = system: M14 melanoma
UACC-62 melanoma = system: UACC-62 melanoma
U251 CNS = system: U251 CNS
SF-268 CNS = system: SF-268 CNS

| Compound | TGI (NCI-H226 lung) | TGI (COLO 205 colon) | TGI (SN12C renal) | TGI (HOP-62 NSCLC) | TGI (SW-620 colon) | TGI (M14 melanoma) | TGI (UACC-62 melanoma) | TGI (U251 CNS) | TGI (SF-268 CNS) | GI50 (NCI-H226 lung) | GI50 (COLO 205 colon) | GI50 (SN12C renal) | GI50 (HOP-62 NSCLC) | GI50 (UACC-62 melanoma) | GI50 (U251 CNS) | GI50 (SF-268 CNS) | GI50 (SW-620 colon) | GI50 (M14 melanoma) |
| --- | --- | --- | --- | --- | --- | --- | --- | --- | --- | --- | --- | --- | --- | --- | --- | --- | --- | --- |
| CN(C)C(=S)/N=c1\ssc(=S)n1Cc1ccccn1 | > 100 µM | 21.4 µM | > 100 µM | > 100 µM | > 100 µM | > 48.2 µM | 11 µM | > 100 µM | > 100 µM |  |  |  |  |  |  |  |  |  |
| O=C(Cc1nc2ccccc2s1)C(=O)Nc1ccc(Cl)cc1Cl | > 100 µM | > 100 µM | > 100 µM | > 100 µM | > 100 µM | > 100 µM |  | > 100 µM | > 100 µM |  |  |  |  |  |  |  |  |  |
| COc1cc(C(=O)/C=C/c2c(-c3cccs3)nc3ccccn23)cc(OC)c1OC | 4.3 µM | 3.2 µM | 27 µM | 6.75 µM |  |  | 3.57 µM | 6.03 µM | 8.47 µM | 2040 nM | 1770 nM | 2.44 µM | 2880 nM | 1.61 µM | 1660 nM | 2.37 µM |  |  |
| N=C(N)Cn1cnc2ccccc21 | > 100 µM | > 100 µM | > 100 µM | > 100 µM | > 100 µM | > 100 µM | > 100 µM | > 100 µM | > 100 µM |  |  |  |  |  |  |  |  |  |
| CC(=O)[CH-]C(=O)c1ccccc1.CC(=O)[CH-]C(=O)c1ccccc1.CC12CC3(C)CC(C)(C1)CC([O-])(C2)C3.CC[O-].[Ti+4] |  | 40.2 µM | > 100 µM | 53.3 µM | > 100 µM | 32.8 µM | 45.2 µM | 27.9 µM | 45.4 µM |  | 19400 nM | 43.5 µM | 22300 nM | 18.5 µM | 13500 nM | 18.6 µM | 32.4 µM | 16.9 µM |
| O/N=C1/C(=C/c2ccc(Cl)cc2)CCCC1C(NO)c1ccc(Cl)cc1 (centres undefined) |  | 42.3 µM | 39.7 µM | 68.9 µM | > 100 µM | 33.8 µM | > 100 µM | 50.8 µM | 40.2 µM |  |  |  |  |  |  |  |  |  |
| C[n+]1ccc2[nH]c3ccccc3c2c1 | > 100 µM | > 100 µM | > 100 µM | > 100 µM | > 100 µM | > 100 µM | > 100 µM | > 100 µM | > 100 µM |  |  |  |  |  |  |  |  |  |
| CCCCc1oc2ccccc2c1C(=O)c1cc(I)c(OCCN(CC)CC)c(I)c1 | 12.7 µM and 8.55 µM | 3.4 µM and 7.84 µM | 14.8 µM and 27.9 µM | 6.25 µM and 30.7 µM | 4.13 µM and 9.18 µM | 4.78 µM | 3.83 µM | 3 µM and 7.73 µM | 14 µM and 38.9 µM | 2840 nM | 1890 nM | 3.08 µM | 2360 nM |  | 1570 nM | 3.28 µM | 1.76 µM | 2.18 µM |
| Cn1c(=O)c2[nH]cnc2n(CC(=O)O)c1=O | > 100 µM | > 100 µM | > 100 µM | > 100 µM | > 100 µM | > 100 µM | > 100 µM | > 100 µM | > 100 µM |  |  |  |  |  |  |  |  |  |
